Assay results from patent US20110053897A1 (IRM LLC, priority 2009, published 2011).
Read-outs that look alike come from different tables or passages of the source.

Target: T1, Syk kinase (Homo sapiens, UniProt P43405)
T1 construct: purchased
Test: Syk kinase inhibition, Caliper LabChip off-chip mobility-shift kinase assay
Format: biochemical
Details: read-out: Syk Enzyme IC50
How it was run: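 Purified Syk pre-incubated 15 min with compound in 100 mM HEPES pH 7.5, 1 mM DTT, 10 mM MgCl2 or MnCl2, 0.002% Brij-35, then 1.5 μM fluorescein peptide and ATP at apparent KM added; 1–1.5 h at room temperature, 4% DMSO, EDTA stop. Microfluidic mobility-shift product/substrate conversion gave % inhibition; IC50 from 12-point series (10–0.00003 μM) by 4-parameter fit.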

Compound	IC50 (Caliper LabChip assay)	IC50
CCc1cc(Nc2cc3ccn(CCO)c(=O)c3c(NC(C)(C)C)n2)ncn1 [compound 619, 8-(tert-butylamino)-6-(6-ethylpyrimidin-4-ylamino)-2-(2-hydroxyethyl)-2,7-naphthyridin-1(2H)-one]	102 nM	–
CC(C)(C)Nc1nc(Nc2cc(C3(CO)CC3)ccn2)cc2ccn(CCO)c(=O)c12 [compound 860]	28 nM	–
CCn1ccc2cc(Nc3cnccn3)nc(N[C@H]3CCCC[C@@H]3O)c2c1=O (racemic) [compound 407]	–	301 nM
Cc1ccnc(Nc2cc3ccn(CCO)c(=O)c3c(Nc3ccc(S(C)(=O)=O)cc3)n2)c1 [compound 404]	–	63.4 nM
COCCCNc1nc(Nc2cc(C)ccn2)cc2cc[nH]c(=O)c12 [compound 281]	–	87 nM
Cc1ccnc(Nc2cc3ccn(CCN4CCOCC4)c(=O)c3c(NC(C)C)n2)c1 [compound 315]	–	381 nM
Nc1nccc(-c2cc3cc[nH]c(=O)c3c(Nc3ccc(N4CCOCC4)cc3)n2)n1 [compound 53]	–	494 nM
Cc1ccnc(Nc2cc3ccn(CCO)c(=O)c3c(NC(C)C)n2)c1 [compound 313]	–	85 nM
Cc1ncc(-c2cc3cc[nH]c(=O)c3c(Nc3ccc([C@H]4CC[C@H](N5CCOCC5)CC4)cc3)n2)cn1 [compound 1]	–	49 nM
Cc1cc(Nc2nc(-c3cnn(CC(C)C)c3)cc3cc[nH]c(=O)c23)ccc1C1CCN(C2CC2)CC1 [compound 211]	–	197 nM
O=C(Cn1ccc2cc(Nc3cnccn3)nc(N[C@H]3CC[C@@H](O)CC3)c2c1=O)N1CCOCC1 [compound 1007]	132 nM	–
Cc1ccnc(Nc2cc3cc[nH]c(=O)c3c(NC(C)CO)n2)c1 (stereo not drawn) [compound 265]	–	18 nM
CC(C)n1ccc2cc(Nc3cnccn3)nc(N[C@@H](C)CO)c2c1=O [compound 967]	17 nM	–
CCn1ccc2cc(Nc3cnccn3)nc(NCC(F)(F)F)c2c1=O [compound 1044]	110 nM	–
CC(C)(C)Nc1nc(Nc2cnccn2)cc2ccn(Cc3ccncc3)c(=O)c12 [compound 1019]	301 nM	–
CC(C)Nc1nc(Nc2cc(-c3cnn(C)c3)ccn2)cc2cc[nH]c(=O)c12 [compound 595]	–	87.9 nM
COc1cncc(-c2cc3cc[nH]c(=O)c3c(Nc3ccc(C4CCN(CC(C)C#N)CC4)c(C)c3)n2)n1 (stereo not drawn) [compound 178]	–	61 nM
CNC(=O)CCN1CCC(c2ccc(Nc3nc(-c4cncc(OC)n4)cc4cc[nH]c(=O)c34)cc2C)CC1 [compound 161]	–	18 nM
COc1cncc(-c2cc3cc[nH]c(=O)c3c(Nc3ccc(C4CCN(C5CC5)CC4)c(C)c3)n2)n1 [compound 210]	–	88 nM
CC1(Nc2nc(-c3cnc(N)nc3)cc3ccn(CC4CCOCC4)c(=O)c23)CCC1 [compound 930]	81 nM	–
COc1cncc(-c2cc3cc[nH]c(=O)c3c(Nc3ccc(CCN4CCN5CCCC5C4)cc3)n2)n1 (stereo not drawn) [compound 7]	–	53 nM
Cc1ncc(-c2cc3cc[nH]c(=O)c3c(Nc3ccc(C4CCN(CCC#N)CC4)c(C)c3)n2)cn1 [compound 73]	–	81 nM
CCNC(=O)c1ccc(Nc2nc(Nc3cnccn3)cc3ccn(C)c(=O)c23)cc1 [compound 381]	–	604 nM
CCN1CCN(c2n[nH]c3cc(Nc4nc(-c5cncc(C(=O)N6CCOCC6)c5)cc5cc[nH]c(=O)c45)ccc23)CC1 [compound 206]	–	60 nM

Compound	IC50 (Caliper LabChip assay)	IC50
CC(C)(C)Nc1nc(-c2cnc(N)nc2)cc2ccn(CCO)c(=O)c12 [compound 899]	17 nM	–
CCn1ccc2cc(Nc3cc(C)ccn3)nc(N[C@@H]3CC[C@@H](O)C3)c2c1=O [compound 1040]	84 nM	–
COc1cncc(-c2cc3cc[nH]c(=O)c3c(Nc3ccc(C4CCN(C(C)C(=O)O)CC4)c(C)c3)n2)n1 (stereo not drawn) [compound 117]	–	22 nM
Cn1ccc2cc(Nc3cnccn3)nc(NC(C)(C)C)c2c1=O [compound 463]	–	54 nM
CNC(=O)C(C)N1CCC(c2ccc(Nc3nc(-c4cncc(OC)n4)cc4cc[nH]c(=O)c34)cc2C)CC1 (stereo not drawn) [compound 173]	–	11 nM
CCOCC(=O)N1CCC(c2ccc(Nc3nc(-c4cncc(OC)n4)cc4cc[nH]c(=O)c34)cc2C)CC1 [compound 50]	–	75 nM
CCn1ccc2cc(Nc3cc(C)ccn3)nc(N[C@H](CO)C(C)C)c2c1=O [compound 1041]	158 nM	–
COCCN1CCC(c2ccc(Nc3nc(-c4cnc5nccn5c4)cc4cc[nH]c(=O)c34)cc2C)CC1 [compound 30]	–	8 nM
CCn1ccc2cc(Nc3cnccn3)nc(N[C@H]3CCC[C@@H]3O)c2c1=O [compound 423]	–	52.4 nM
Cc1ccnc(Nc2cc3cc[nH]c(=O)c3c(N[C@@H]3CCOC3)n2)c1 [compound 301]	–	37 nM
Cc1cc(Nc2nc(-c3ccc(N(C)C)nc3)cc3cc[nH]c(=O)c23)ccc1C1CCN(C2CC2)CC1 [compound 218]	–	350 nM
O=c1[nH]ccc2cc(Nc3ccccn3)nc(NCC3CC3)c12 [compound 291]	–	312 nM
CC(N)c1ccnc(Nc2cc3ccn(CCO)c(=O)c3c(NC(C)(C)C)n2)c1 (stereo not drawn) [compound 712, 6-(4-(1-aminoethyl)pyridin-2-ylamino)-8-(tert-butylamino)-2-(2-hydroxyethyl)-2,7-naphthyridin-1(2H)-one]	53 nM	–
CCC(C(=O)O)N1CCC(c2ccc(Nc3nc(-c4cncc(OC)n4)cc4cc[nH]c(=O)c34)cc2C)CC1 (stereo not drawn) [compound 119]	–	5 nM
CCn1ccc2cc(Nc3cnccn3)nc(N[C@H]3CCOC3)c2c1=O [compound 355]	–	37 nM
CCCn1ccc2cc(-c3cnc(N)nc3)nc(NC(C)(C)C)c2c1=O [compound 914]	108 nM	–
CC(C)(C)Nc1nc(Nc2cc(N3CCC(O)CC3)ncn2)cc2ccn(CCO)c(=O)c12 [compound 634]	161 nM	–
Cn1cc2cc(Nc3nc(Nc4cnccn4)cc4ccn(CCO)c(=O)c34)ccc2n1 [compound 659]	103 nM	–
CC(C)n1ccc2cc(Nc3cnccn3)nc(N[C@H]3CC[C@@H](O)CC3)c2c1=O [compound 944]	32 nM	–
Cc1ccnc(Nc2cc3cc[nH]c(=O)c3c(N[C@H](C)CO)n2)c1 [compound 295]	–	20 nM
[2H]C([2H])([2H])n1ccc2cc(Nc3cnccn3)nc(N[C@@H](C)CO)c2c1=O [compound 1050]	45.7 nM	–
CC1(Cn2ccc3cc(-c4cnc(N)nc4)nc(NC(C)(C)C)c3c2=O)COC1 [compound 924]	13 nM	–
COc1ncc(-c2cc3cc[nH]c(=O)c3c(Nc3ccc(C4CNC4)cc3)n2)cn1 [compound 130]	–	57 nM
CC(C)(C)Nc1nc(Nc2cc(-c3cn[nH]c3)ccn2)cc2ccn(CCO)c(=O)c12 [compound 840]	117 nM	–

Compound	IC50 (Caliper LabChip assay)	IC50
Cc1cc(Nc2nc(Nc3ccc(C(N)=O)cn3)cc3cc[nH]c(=O)c23)ccc1N1CCO[C@H](C)C1 [compound 538]	–	361 nM
Cc1cc(Nc2nc(CCO)cc3cc[nH]c(=O)c23)ccc1C1CCN(C2CC2)CC1 [compound 246]	–	41 nM
CCn1ccc2cc(Nc3cnccn3)nc(N[C@H]3CC[C@@H](CO)C3)c2c1=O [compound 793]	18 nM	–
Cc1cc(Nc2nc(Nc3ccc(C#N)cn3)cc3cc[nH]c(=O)c23)ccc1N1CCO[C@H](C)C1 [compound 557]	–	3350 nM
CC(C)(C)Nc1nc(Nc2cc(N3CCCC(CO)C3)ccn2)cc2ccn(CCO)c(=O)c12 (stereo not drawn) [compound 845]	766 nM	–
CC(=O)N1CCC(c2ccc(Nc3nc(Nc4cc(C)ccn4)cc4ccn(C)c(=O)c34)cc2)CC1 [compound 310]	–	763 nM
Cn1ccc2cc(Nc3cnccn3)nc(Nc3ccc(C4CCN(C5COC5)CC4)cc3)c2c1=O [compound 346]	–	387 nM
Cc1ccnc(Nc2cc3cc[nH]c(=O)c3c(N[C@@H](C)CO)n2)c1 [compound 294]	–	101 nM
COCC(C)(C)C(=O)N1CCC(c2ccc(Nc3nc(-c4cncc(OC)n4)cc4cc[nH]c(=O)c34)cc2C)CC1 [compound 8]	–	253 nM
C/C=C/c1cc2cc[nH]c(=O)c2c(Nc2ccc(C3CCN(C4CC4)CC3)c(C)c2)n1 [compound 228]	–	1660 nM
CC(C)(C)Nc1nc(Nc2cc(OC3CCN(CCO)CC3)ncn2)cc2ccn(CCO)c(=O)c12 [compound 646]	9 nM	–
CC(C)(C)Nc1nc(Nc2cc(CO)ccn2)cc2ccn(CCO)c(=O)c12 [compound 693]	42 nM	–
COC(C)c1ccnc(Nc2cc3ccn(CCO)c(=O)c3c(NC(C)(C)C)n2)c1 (stereo not drawn) [compound 868]	16 nM	–
CC1(Nc2nc(Nc3cc(C(C)(C)O)ccn3)cc3ccn(CCO)c(=O)c23)CCC1 [compound 704]	45 nM	–
[2H]C([2H])([2H])n1ccc2cc(Nc3cc(C)ccn3)nc(N[C@H]3CC[C@@H](CO)C3)c2c1=O [compound 985]	41 nM	–
C[C@H](O)CNc1nc(-c2cnc(N)nc2)cc2cc[nH]c(=O)c12 [compound 451]	–	88 nM
O=c1[nH]ccc2cc(Nc3cnccn3)nc(NC3CCCC3)c12 [compound 766]	7 nM	–
CC1(Cn2ccc3cc(-c4cnc(N)nc4)nc(NC4COC4)c3c2=O)COC1 [compound 773, 6-(2-Aminopyrimidin-5-yl)-2-((3-methyloxetan-3-yl)methyl)-8-(oxetan-3-ylamino)-2,7-naphthyridin-1(2H)-one]	67 nM	–
CC(C)(C)Nc1nc(Nc2cc(N3CC(O)C3)ncn2)cc2ccn(CCO)c(=O)c12 [compound 631]	233 nM	–
CC(C)Nc1nc(Nc2cc(-c3cccnc3)ccn2)cc2ccn(C)c(=O)c12 [compound 1046]	113 nM	–
CC(C)(C)Nc1nc(Nc2cc(CNCCO)ccn2)cc2ccn(CCO)c(=O)c12 [compound 608]	< 5.65 nM	–
CC(C)(C)Nc1nc(-c2cnc(N)nc2)cc2ccn(CCCCO)c(=O)c12 [compound 920]	18 nM	–
CC1(Cn2ccc3cc(-c4cnc(N)nc4)nc(NC4CCC4)c3c2=O)COC1 [compound 771]	75 nM	–
CCn1ccc2cc(Nc3cc(C)ccn3)nc(N[C@H]3CCC[C@H]3O)c2c1=O [compound 420]	–	11 nM
